Measurements published in PubChem BioAssay AID624143 (National Center for Advancing Translational Sciences (NCATS), 2012).

Tested on: mouse plasma stability, LC-MS/MS, 48 h
Experiment: qHTS Assay to Find Inhibitors of T. brucei phosphofructokinase: Mouse Plasma Stability Profiling
Settings: at 2 µM; hits give high values

percent remaining: 100%
SMILES: O=C(Cc1ccc(Cl)c(Cl)c1)Nc1ccc(S(=O)(=O)Nc2ccon2)cc1
